Experiments:
MCF7 cells = assay: MCF7 proliferation with 7c in combination with metformin; assay type: cell-based, human; settings: 7c combined with metformin; printed as up to 4 nM
Text: Hyperglycemia is one of the most frequent side effects of pan- and isoform-selective PI3K inhibitors. Drug-induced inhibition of PI3K reduces glucose uptake that stimulates insulin secretion. Long-term therapy with PI3K inhibitors can cause insulin resistance. […] We have previously analyzed the antiproliferative potency of metformin (MF) against MCF7 breast cancer cells. Metformin induced a partial restoration of the cancer cell sensitivity to hormonal and target drugs. MF caused 50% suppression of MCF7 cell growth at a concentration of 5.8 mM [54]. Based on this fact, MF at the concentrations that had no significant antiproliferative effect was used in the combination with the lead compound. […]
Human breast cancer MCF7, MDA-MB-231, SkBr-3 (purchased from the ATCC collection), human keratinocytes HaCaT, murine fibroblasts L929 and macrophages J774 cells (Collection of Shemyakin-Ovchinnikov Institute of Bioorganic Chemistry RAS) were cultured in standard DMEM or RPMI-1640 medium (ThermoScientific, Waltham, MA, USA) supplemented with 10% fetal bovine serum (FBS, Cytiva, Marlborough, MA, USA) at 37 °C, 5 % CO2 and 80–85% humidity (NuAir CO2 incubator). The cell growth was evaluated by MTT (3-[4,5-dimethylthiazol-2-yl]-2,5-diphenyltetrazolium bromide) test. […] The absorbance of solutions was measured at 540 nm with a MultiScan reader (ThermoFisher). […]

SkBr-3 cells = assay: Cell cycle analysis (PI-stained DNA, flow cytometry); assay type: cell-based, human
Description: The cell cycle was analyzed using PI-stained DNA. Cells from the compounds 7 treated cultures were collected at 24, 48, and 72 h, trypsinized, washed in ice-cold PBS, fixed by the addition of 70% ethanol and left for 2 h at −20 °C. Thereafter, the cells were washed twice in PBS, stained with 50 μg/mL of propidium iodide (Sigma, Merck KGaA, Darmstadt, Germany) in PBS, treated with 10 µg/mL of RNAse and analyzed by flow cytometry using FACScan device (BD, USA). A total of 2000 events were collected. The results were analyzed using FlowJo 10 software (BD, Franklin Lakes, NJ, USA).

PARP1 in MCF7 cells = assay: Immunoblotting of PARP1 cleavage; assay type: cell-based, human
Description: MCF7 cells were seeded onto 100 mm dishes (Corning) and cultivated for 24 h. Compound 7c was added at different concentrations while the reference compound wortmannin (Selleckchem, Houston, TX, USA) was used at 500 nM. The cells were harvested after 72 h of growth with the compounds. To prepare cell extracts, MCF7 cells were twice washed in phosphate buffer and incubated for 10 min on ice in the modified lysis buffer containing 50 mM Tris-HCl, pH 7.5, 0.5% Igepal CA-630, 150 mM NaCl, 1 mM EDTA, 1 mM DTT, 1 mM PMSF, 0.1 mM sodium orthovanadate and aprotinin, leupeptin, pepstatin (1 µg/mL each). The protein content was determined by the Bradford method. Cell lysates were separated in 10% SDS-PAGE under reducing conditions, transferred to a nitrocellulose membrane (GE HealthCare, Chicago, IL, USA), and processed according to a standard protocol. To prevent nonspecific absorption, the membranes were treated with 5% nonfat milk solution in TBS buffer (20 mM Tris, 500 mM NaCl, pH 7.5) with 0.1% Tween-20 and then incubated with primary antibodies (Cell Signaling Technology, Danvers, MA, USA) overnight at 4 °C. […] Signals were detected using the ECL reagent using the ImageQuant LAS4000 system (GE HealthCare, Chicago, IL, USA).
The signals of phospho-proteins to total ones were calculated using the ImageJ program from inverted images of the bands.

[1] = biological target: T1, recombinant PI3K (p110α/p85α) (Homo sapiens, UniProt P42336); assay: PI3K inhibition assay (HTRF); assay type: biochemical; settings: FRET/HTRF detection; approximate; read-out: IC50 PI3Kα
T1 construct: purchased Millipore 14-602
T1 sequence (P42336 whole entry): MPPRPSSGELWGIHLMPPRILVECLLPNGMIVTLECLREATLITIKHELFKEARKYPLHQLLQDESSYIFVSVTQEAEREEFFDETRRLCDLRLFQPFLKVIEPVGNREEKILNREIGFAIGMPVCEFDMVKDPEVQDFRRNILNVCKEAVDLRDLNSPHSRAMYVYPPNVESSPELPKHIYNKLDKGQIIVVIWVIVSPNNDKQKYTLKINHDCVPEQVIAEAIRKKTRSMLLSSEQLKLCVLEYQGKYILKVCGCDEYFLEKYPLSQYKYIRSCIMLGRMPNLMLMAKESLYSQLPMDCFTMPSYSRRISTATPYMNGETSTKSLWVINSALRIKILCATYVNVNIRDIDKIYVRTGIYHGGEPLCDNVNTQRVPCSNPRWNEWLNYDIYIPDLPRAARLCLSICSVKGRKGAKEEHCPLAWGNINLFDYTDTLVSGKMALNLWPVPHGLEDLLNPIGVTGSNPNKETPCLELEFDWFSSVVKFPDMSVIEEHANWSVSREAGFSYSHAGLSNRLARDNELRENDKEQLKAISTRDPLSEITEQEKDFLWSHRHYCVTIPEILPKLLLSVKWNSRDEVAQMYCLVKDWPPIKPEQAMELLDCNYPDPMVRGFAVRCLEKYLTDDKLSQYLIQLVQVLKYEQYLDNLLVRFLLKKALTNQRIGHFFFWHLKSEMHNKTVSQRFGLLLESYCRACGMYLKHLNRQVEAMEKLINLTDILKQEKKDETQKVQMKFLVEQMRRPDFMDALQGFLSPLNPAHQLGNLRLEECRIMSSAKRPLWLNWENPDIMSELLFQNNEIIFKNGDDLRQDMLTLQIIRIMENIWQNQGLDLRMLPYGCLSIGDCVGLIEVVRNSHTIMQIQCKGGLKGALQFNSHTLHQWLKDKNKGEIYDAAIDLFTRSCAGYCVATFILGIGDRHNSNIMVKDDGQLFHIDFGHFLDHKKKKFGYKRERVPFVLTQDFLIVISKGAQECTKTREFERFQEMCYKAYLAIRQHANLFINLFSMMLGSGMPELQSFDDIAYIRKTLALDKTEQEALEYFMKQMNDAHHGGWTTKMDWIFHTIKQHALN
T1 sequence (P27986 whole entry partner): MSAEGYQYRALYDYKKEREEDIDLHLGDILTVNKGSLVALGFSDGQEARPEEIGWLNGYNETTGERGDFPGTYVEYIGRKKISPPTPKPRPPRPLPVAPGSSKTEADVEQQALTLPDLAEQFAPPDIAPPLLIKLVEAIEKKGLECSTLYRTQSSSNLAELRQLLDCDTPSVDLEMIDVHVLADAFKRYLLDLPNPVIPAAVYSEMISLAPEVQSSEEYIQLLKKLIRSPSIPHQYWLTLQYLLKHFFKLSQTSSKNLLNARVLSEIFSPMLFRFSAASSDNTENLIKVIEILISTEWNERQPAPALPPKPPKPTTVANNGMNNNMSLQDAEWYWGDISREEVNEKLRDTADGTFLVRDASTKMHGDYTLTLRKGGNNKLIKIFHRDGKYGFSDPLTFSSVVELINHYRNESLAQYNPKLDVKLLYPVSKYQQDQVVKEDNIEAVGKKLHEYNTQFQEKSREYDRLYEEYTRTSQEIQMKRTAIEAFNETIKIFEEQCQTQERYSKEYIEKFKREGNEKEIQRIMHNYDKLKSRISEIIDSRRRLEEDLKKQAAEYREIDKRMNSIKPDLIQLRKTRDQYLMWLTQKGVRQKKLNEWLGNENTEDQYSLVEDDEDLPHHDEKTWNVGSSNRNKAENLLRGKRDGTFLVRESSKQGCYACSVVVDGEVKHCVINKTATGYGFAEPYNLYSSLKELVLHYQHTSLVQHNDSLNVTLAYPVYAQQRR
Description: The PI 3-Kinase (Class I) HTRF Assay Kit (Cat# 33-016 from Millipore) was used to determine the activity of recombinant PI3K (p110α/p85α) human (Cat# 14-602 from Millipore). The kit was supplemented with ATP (Cat# A26209 from Sigma-Aldrich, St. Louis, MI, USA), DL-dithiothreitol (Cat# S-[…]-1 from Sigma-Aldrich), and Wortmannin inhibitor (Cat# 12-338 from Millipore, Burlington, MA, USA). The latter was used at 0.1 μM concentration. For measurements, a Victor ×5 plate reader (PerkinElmer, 2030, Waltham, MA, USA) was used in TRF mode with excitation at 340 nm. Fluorescence emission was recorded at 613 and 670 nm in a 384-well plate (Cat# S-CLS3658 from Sigma-Aldrich) at a time interval of 150-350 μs. The enzymatic reaction and the determination of its products were carried out according to the recommendations of the reagent kit manufacturer (Millipore) in two wells for each sample. In calculations, readings in parallel wells were averaged. The calculations were made according to the recommendations of the equipment manufacturer.

IC50 [1]: ~500 µM
Compound: O=C(NCCc1cccnc1)Nc1ccc(-c2ccc3c(N4CCOCC4)nc(N4CCOCC4)nc3c2)cc1 [Compound 7c, 1-(4-(2,4-Dimorpholinoquinazolin-7-yl)phenyl)-3-(2-(pyridin-3-yl)ethyl)urea]
Antiproliferative activity in combination with metformin (MCF7 cells): up to 4 nM
Concentration above which all cells died (SkBr-3 cells): higher than 10 μM
Concentration below which no changes in the cell cycle were found (SkBr-3 cells): below 1 μM
Concentration triggering PARP-1 cleavage (PARP1 in MCF7 cells): 62 to 125 nM
